Source: patent US10273233B2, “Inhibitors of influenza viruses replication” (Vertex Pharmaceuticals Incorporated, priority 2015, dated 2019)
Where two headings read alike, the source gives them in different places.

Experiments:
A/WS/33 = experiment: 3-day CP assay in MDCK cells; assay type: cell-based; conditions: Influenza A virus
A/NWS/33 = experiment: 3-day CP assay in MDCK cells; assay type: cell-based, influenza A; conditions: Influenza A virus, MDCK
A/Puerto Rico/8/34 = experiment: 3-day CP assay in MDCK cells; assay type: cell-based; conditions: Influenza A virus
A/Weiss/43 = experiment: 3-day CP assay in MDCK cells; assay type: cell-based; conditions: Influenza A virus
A/FM/1/47 = experiment: 3-day CP assay in MDCK cells; assay type: cell-based; conditions: Influenza A virus
A/Mal/302/54 = experiment: 3-day CP assay in MDCK cells; assay type: cell-based; conditions: Influenza A virus
A/Denver/1/57 = experiment: 3-day CP assay in MDCK cells; assay type: cell-based; conditions: Influenza A virus
A/Aichi/2/68 = experiment: 3-day CP assay in MDCK cells; assay type: cell-based; conditions: Influenza A virus
A/Hong Kong/8/68 = experiment: 3-day CP assay in MDCK cells; assay type: cell-based; conditions: Influenza A virus
A/Port Chalmers/1/73 = experiment: 3-day CP assay in MDCK cells; assay type: cell-based; conditions: Influenza A virus
A/Victoria/3/75 = experiment: 3-day CP assay in MDCK cells; assay type: cell-based; conditions: Influenza A virus
A/New Jersey/8/76 = experiment: microbe, parasite or virus in culture; assay type: cell-based; conditions: Influenza A virus, MDCK
A/Wisconsin/67/2005 = experiment: 3-day CP assay in MDCK cells; assay type: cell-based; conditions: Influenza A virus
A/Chelyabinsk/1/200 = experiment: 3-day CP assay in MDCK cells; assay type: cell-based; conditions: Influenza A virus
A/Fukushima/141/2006 = experiment: 3-day CP assay in MDCK cells; assay type: cell-based; conditions: Influenza A virus
A/Georgia/17/2006 = experiment: 3-day CP assay in MDCK cells; assay type: cell-based; conditions: Influenza A virus
A/Georgia/20/2006 = experiment: 3-day CP assay in MDCK cells; assay type: cell-based, influenza A; conditions: Influenza A virus, MDCK
A/Hawaii/2/2006 = experiment: 3-day CP assay in MDCK cells; assay type: cell-based; conditions: Influenza A virus
A/Missouri/3/2006 = experiment: 3-day CP assay in MDCK cells; assay type: cell-based; conditions: Influenza A virus
A/Nebraska/1/2006 = experiment: 3-day CP assay in MDCK cells; assay type: cell-based; conditions: Influenza A virus
A/Santiago/7981/2006 = experiment: 3-day CP assay in MDCK cells; assay type: cell-based; conditions: Influenza A virus
A/St. Petersburg8/2006 = experiment: 3-day CP assay in MDCK cells; assay type: cell-based; conditions: Influenza A virus
A/Virginia/01/2006 = experiment: 3-day CP assay in MDCK cells; assay type: cell-based; conditions: Influenza A virus
A/Cambodia0371/2007 = experiment: 3-day CP assay in MDCK cells; assay type: cell-based; conditions: Influenza A virus
A/Henan/Jinshui/147/2007 = experiment: 3-day CP assay in MDCK cells; assay type: cell-based; conditions: Influenza A virus
A/South Dakota/6/2007 = experiment: 3-day CP assay in MDCK cells; assay type: cell-based; conditions: Influenza A virus
A/Texas/12/2007 = experiment: 3-day CP assay in MDCK cells; assay type: cell-based; conditions: Influenza A virus
A/Uruguay/716/2007 = experiment: 3-day CP assay in MDCK cells; assay type: cell-based; conditions: Influenza A virus
A/California/07/2009 = experiment: 3-day CP assay in MDCK cells; assay type: cell-based; conditions: Influenza A virus, MDCK; A/California/07/2009
[1] = test system: A/California/07/2009 NYMC, X-179A; experiment: 3-day CP assay in MDCK cells; assay type: cell-based; conditions: Influenza A virus
A/Mexico/4108/2009 = experiment: 3-day CP assay in MDCK cells; assay type: cell-based; conditions: Influenza A virus
A/New York/18/2009 = experiment: 3-day CP assay in MDCK cells; assay type: cell-based; conditions: Influenza A virus
A/Texas/48/2009 = experiment: 3-day CP assay in MDCK cells; assay type: cell-based; conditions: Influenza A virus
A/Virginia/ATCC2/2009 = experiment: 3-day CP assay in MDCK cells; assay type: cell-based; conditions: Influenza A virus
A/Virginia/ATCC3/2009 = experiment: 3-day CP assay in MDCK cells; assay type: cell-based; conditions: Influenza A virus
A/Swine/Iowa/15/30 = experiment: microbe, parasite or virus in culture; assay type: cell-based, influenza A; conditions: Influenza A virus, MDCK, in Sus scrofa
A/Swine/1976/31 = experiment: microbe, parasite or virus in culture; assay type: cell-based; conditions: Influenza A virus, MDCK, in Sus scrofa
A/Equine/Miami/63 = experiment: microbe, parasite or virus in culture; assay type: cell-based; conditions: Influenza A virus, MDCK
B/Lee/40 = experiment: 3-day CP assay in MDCK cells; assay type: cell-based; conditions: Influenza B virus
B/Russia/69 = experiment: 3-day CP assay in MDCK cells; assay type: cell-based; conditions: Influenza B virus
B/Memphis/20/1996--070 = experiment: 3-day CP assay in MDCK cells; assay type: cell-based; conditions: Influenza B virus
physchem [2] = conditions: thermodynamic from solid
physchem [3] = conditions: thermodynamic from solid; remark: listed apart in the source

NC12CC3CC(CC(C3)C1)C2 [Amantadine, amantadine]
EC50 (A/WS/33): > 10 µM
EC50 (A/NWS/33): > 10 µM
EC50 (A/Puerto Rico/8/34): > 10 µM
EC50 (A/Weiss/43): > 10 µM
EC50 (A/FM/1/47): 0.66 µM
EC50 (A/Mal/302/54): 2.1 µM
EC50 (A/Denver/1/57): 0.31 µM
EC50 (A/Aichi/2/68): 6.6 µM
EC50 (A/Hong Kong/8/68): 3.7 µM
EC50 (A/Port Chalmers/1/73): > 10 µM
EC50 (A/Victoria/3/75): 8.6 µM
EC50 (A/New Jersey/8/76): 0.82 µM
EC50 (A/Wisconsin/67/2005): > 10 µM
EC50 (A/Chelyabinsk/1/200): > 10 µM
EC50 (A/Fukushima/141/2006): 0.46 µM
EC50 (A/Georgia/17/2006): 0.25 µM
EC50 (A/Georgia/20/2006): > 10 µM
EC50 (A/Hawaii/2/2006): 9.2 µM
EC50 (A/Missouri/3/2006): 6 µM
EC50 (A/Nebraska/1/2006): > 10 µM
EC50 (A/Santiago/7981/2006): > 10 µM
EC50 (A/St. Petersburg8/2006): > 10 µM
EC50 (A/Virginia/01/2006): > 10 µM
EC50 (A/Cambodia0371/2007): > 10 µM
EC50 (A/Henan/Jinshui/147/2007): > 10 µM
EC50 (A/South Dakota/6/2007): 0.14 µM
EC50 (A/Texas/12/2007): > 10 µM
EC50 (A/Uruguay/716/2007): > 10 µM
EC50 (A/California/07/2009): > 10 µM
EC50 [1]: > 10 µM
EC50 (A/Mexico/4108/2009): > 10 µM
EC50 (A/New York/18/2009): > 10 µM
EC50 (A/Texas/48/2009): > 10 µM
EC50 (A/Virginia/ATCC2/2009): > 10 µM
EC50 (A/Virginia/ATCC3/2009): > 10 µM
EC50 (A/Swine/Iowa/15/30): 0.22 µM
EC50 (A/Swine/1976/31): 0.078 µM
EC50 (A/Equine/Miami/63): 1.75 µM
EC50 (B/Lee/40): > 10 µM
EC50 (B/Russia/69): > 10 µM
EC50 (B/Memphis/20/1996--070): > 10 µM

CC(C)(C)[C@@H](CC(=O)O)Nc1nc(-c2c[nH]c3ncc(F)cc23)ncc1F [Hydrate 1 of Compound (1)]
USP Definition (pH 0.84): Slightly Soluble
USP Definition (pH 1.59): Slightly Soluble
Final Form (pH 2.84): Hydrate 3
USP Definition (pH 2.84): Practically Insoluble
Final Form (pH 4.22): Hydrate 3
USP Definition (pH 4.22): Practically Insoluble
Final Form (pH 5.17): Hydrate 3
USP Definition (pH 5.17): Practically Insoluble
Final Form (pH 5.96): Hydrate 3
USP Definition (pH 5.96): Practically Insoluble
Final Form (pH 6.38): Hydrate 3
USP Definition (pH 6.38): Very Slightly Soluble
Final Form (pH 6.71): Hydrate 3
USP Definition (pH 6.71): Very Slightly Soluble
Final Form (pH 7.07): Hydrate 3
USP Definition (pH 7.07): Very Slightly Soluble
Final Form (pH 7.73): Hydrate 3
USP Definition (pH 7.73): Slightly Soluble
Final Form (pH 8.13): Hydrate 3
USP Definition (pH 8.13): Slightly Soluble
Final Form (pH 8.4): Hydrate 3
USP Definition (pH 8.4): Slightly Soluble
solubility at 2 weeks (physchem [2]; pH 0.84, saline or isotonic): 2150 µg/mL
solubility at 2 weeks (physchem [2]; pH 1.59, saline or isotonic): 1150 µg/mL
solubility at 2 weeks (physchem [2]; pH 2.84, saline or isotonic): 57 µg/mL
solubility at 2 weeks (physchem [2]; pH 4.22, saline or isotonic): 4 µg/mL
solubility at 2 weeks (physchem [2]; pH 5.17, saline or isotonic): 21 µg/mL
solubility at 2 weeks (physchem [2]; pH 5.96, saline or isotonic): 78 µg/mL
solubility at 2 weeks (physchem [2]; pH 6.38, saline or isotonic): 216 µg/mL
solubility at 2 weeks (physchem [2]; pH 6.71, saline or isotonic): 420 µg/mL
solubility at 2 weeks (physchem [2]; pH 7.07, saline or isotonic): 335 µg/mL
solubility at 2 weeks (physchem [2]; pH 7.73, saline or isotonic): 2240 µg/mL
solubility at 2 weeks (physchem [2]; pH 8.13, saline or isotonic): 4830 µg/mL
solubility at 2 weeks (physchem [2]; pH 8.4, saline or isotonic): 4360 µg/mL
solubility at 5 days (physchem [3]; pH 1.55, fassgf or other biorelevant): 2660 µg/mL
solubility at 5 days (physchem [3]; pH 3.56, aqueous with cosolvent or surfactant or cyclodextrin): 285 µg/mL
solubility at 5 days (physchem [3]; pH 3.96, aqueous with cosolvent or surfactant or cyclodextrin): 135 µg/mL
solubility at 5 days (physchem [3]; pH 4.15, aqueous with cosolvent or surfactant or cyclodextrin): 1150 µg/mL
solubility at 5 days (physchem [3]; pH 4.17, aqueous with cosolvent or surfactant or cyclodextrin): 1640 µg/mL
solubility at 5 days (physchem [3]; pH 4.18, saline or isotonic): 108 µg/mL
solubility at 5 days (physchem [3]; pH 4.79, aqueous with cosolvent or surfactant or cyclodextrin): 89 µg/mL
solubility at 5 days (physchem [3]; pH 4.84, saline or isotonic): 94 µg/mL
solubility at 5 days (physchem [3]; pH 4.93, aqueous with cosolvent or surfactant or cyclodextrin): 108 µg/mL
solubility at 5 days (physchem [3]; pH 5.03, water): 98 µg/mL
solubility at 5 days (physchem [3]; pH 5.04, aqueous with cosolvent or surfactant or cyclodextrin): 512 µg/mL
solubility at 5 days (physchem [3]; pH 5.08, aqueous with cosolvent or surfactant or cyclodextrin): 606 µg/mL
solubility at 5 days (physchem [3]; pH 5.11, fessif): 60 µg/mL
solubility at 5 days (physchem [3]; pH 5.13, aqueous with cosolvent or surfactant or cyclodextrin): 354 µg/mL
solubility at 5 days (physchem [3]; pH 5.22, aqueous with cosolvent or surfactant or cyclodextrin): 1620 µg/mL
solubility at 5 days (physchem [3]; pH 5.39, aqueous with cosolvent or surfactant or cyclodextrin): 110 µg/mL
solubility at 5 days (physchem [3]; pH 5.53, aqueous with cosolvent or surfactant or cyclodextrin): 223 µg/mL
solubility at 5 days (physchem [3]; pH 5.58, saline or isotonic): 228 µg/mL
solubility at 5 days (physchem [3]; pH 5.59, aqueous with cosolvent or surfactant or cyclodextrin): 152 µg/mL
solubility at 5 days (physchem [3]; pH 5.74, aqueous with cosolvent or surfactant or cyclodextrin): 289 µg/mL
solubility at 5 days (physchem [3]; pH 5.78, aqueous with cosolvent or surfactant or cyclodextrin): 1020 µg/mL
solubility at 5 days (physchem [3]; pH 5.83, aqueous with cosolvent or surfactant or cyclodextrin): 1170 µg/mL
solubility at 5 days (physchem [3]; pH 5.97, aqueous with cosolvent or surfactant or cyclodextrin): 272 µg/mL
solubility at 5 days (physchem [3]; pH 6.04, aqueous with cosolvent or surfactant or cyclodextrin): 467 µg/mL
solubility at 5 days (physchem [3]; pH 6.17, aqueous with cosolvent or surfactant or cyclodextrin): 120 µg/mL
solubility at 5 days (physchem [3]; pH 6.18, aqueous with cosolvent or surfactant or cyclodextrin): 170 µg/mL
solubility at 5 days (physchem [3]; pH 6.19, aqueous with cosolvent or surfactant or cyclodextrin): 200 µg/mL
solubility at 5 days (physchem [3]; pH 6.47, fassif): 80 µg/mL
solubility at 5 days (physchem [3]; pH 6.61, aqueous buffer): 945 µg/mL
solubility at 5 days (physchem [3]; pH 6.63, aqueous buffer): 979 µg/mL
solubility at 5 days (physchem [3]; pH 6.7, aqueous with cosolvent or surfactant or cyclodextrin): 360 µg/mL
solubility at 5 days (physchem [3]; pH 7.42, aqueous buffer): 7620 µg/mL
solubility at 5 days (physchem [3]; pH 7.46, aqueous buffer): 6620 µg/mL
